One experiment deals with BRD2-BD1 (Homo sapiens (Human), UniProt P25440). Kind of experiment: AlphaLisa bromodomain binding assay, BRD2-BD1. The following applies: Table 6; read-out: BRD2(1) IC50. From the text:
(§1) An AlphaLisa assay was used to observe bromodomain binding and measure IC50s for the compounds disclosed herein. An AlphaLisa assay is a bead-based assay used to detect interactions between bromodomains and polyacetylated histone peptides. Donor and acceptor beads bound to target and ligand are brought into proximity by this protein-protein interaction.
(§2) Equipment Required • 1. […] Plate centrifuge • 3. Plate shaker • 4. […] Single channel and multi-channel pipettes • 6. Microplate reader (Pherastar)
(§3) Stock and Final Assay Concentrations (FAC) • 1. All reference and test compounds are made at a concentration of 10 mM in DMSO. Compounds are serially diluted in DMSO and a FAC starting from 10 μM to 10 point 3 fold serial dilutions is arrived. FAC of DMSO is 1%. • 2. Enzyme stock and FAC
(§4) Biotinylated substrate (Acetylated histone H4, biotinylated substrate—cat no. AS64989-025, Anaspec) stock and FAC
(§5) • 4. Acceptor and donor beads stock and FAC
(§6) Buffers • For the enzyme and substrate dilution following buffer is used (for 50 ml) • HEPES: 50 mM 2.5 ml • NaCl: 25 mM 1.25 ml • DTT: 10 mM 0.05 ml • BSA: 0.1% 0.05 g • MilliQ water: 45.7 ml • For dilution of acceptor and donor beads AlphaLISA 5× epigenetics Buffer Perkin Elmer (Cat: AL008C) is used at 1× concentration.
(§7) Procedure • 1. […] Tap the plate gently • 3. […] Cover with plate sealer • 5. […] Incubate the plate at room temperature for 10 minutes • 7. Add 10 μl of the substrate • 8. Cover with plate sealer • 9. […] Cover with plate sealer • 14. […] Cover with plate sealer • 18.
(§8) The percent inhibition is calculated in the excel analysis template and the IC50 values are subsequently determined using a sigmoidal dose-response curve (variable slope) using GraphPad Prism® 5 software.

The next experiment has as its target BRD3-BD1 (Homo sapiens (Human), UniProt Q15059). Briefly: AlphaLisa bromodomain binding assay, BRD3-BD1. The conditions noted are these: Table 6; read-out: BRD3(1) IC50.
Text: as §1, §2, §3, §4, §5, §6, §7, §8
For orientation: In Alpha technology, singlet oxygen from a donor bead excites a nearby acceptor bead.

For the next experiment, the target named is BRD4-BD1 (Homo sapiens (Human), UniProt O60885). Briefly: AlphaLisa bromodomain binding assay, BRD4-BD1. The conditions noted are these: Table 6; read-out: BRD4(1) IC50.
A further experiment addresses BRDT-BD1 (Homo sapiens (Human), UniProt Q58F21). Briefly: AlphaLisa bromodomain binding assay, BRDT-BD1. The following applies: Table 6; read-out: BRDT(1) IC50.
Text: as §1, §2, §3, §4, §5, §6, §7, §8

The target in another experiment is BRD4-BD2 (Homo sapiens (Human), UniProt O60885). Briefly: AlphaLisa bromodomain binding assay, BRD4-BD2. The following applies: Table 6; read-out: BRD4(2) IC50.
Text: as §1, §2, §3, §4, §5, §6, §7, §8

Another experiment has as its target JAK2 (Homo sapiens (Human), UniProt O60674). Kind of experiment: HTRF kinase assay, JAK2. The experiment is classed as biochemical. The conditions noted are these: Table 6. For orientation: Time-resolved FRET reads energy transfer from a long-lived donor to a nearby acceptor.

Chain of BRD3-BD1 (Q15059 34-140): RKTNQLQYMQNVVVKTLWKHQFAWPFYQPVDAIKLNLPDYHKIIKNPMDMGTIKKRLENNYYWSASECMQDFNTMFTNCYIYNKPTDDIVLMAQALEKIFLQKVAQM
Chain of JAK2 (O60674 whole entry): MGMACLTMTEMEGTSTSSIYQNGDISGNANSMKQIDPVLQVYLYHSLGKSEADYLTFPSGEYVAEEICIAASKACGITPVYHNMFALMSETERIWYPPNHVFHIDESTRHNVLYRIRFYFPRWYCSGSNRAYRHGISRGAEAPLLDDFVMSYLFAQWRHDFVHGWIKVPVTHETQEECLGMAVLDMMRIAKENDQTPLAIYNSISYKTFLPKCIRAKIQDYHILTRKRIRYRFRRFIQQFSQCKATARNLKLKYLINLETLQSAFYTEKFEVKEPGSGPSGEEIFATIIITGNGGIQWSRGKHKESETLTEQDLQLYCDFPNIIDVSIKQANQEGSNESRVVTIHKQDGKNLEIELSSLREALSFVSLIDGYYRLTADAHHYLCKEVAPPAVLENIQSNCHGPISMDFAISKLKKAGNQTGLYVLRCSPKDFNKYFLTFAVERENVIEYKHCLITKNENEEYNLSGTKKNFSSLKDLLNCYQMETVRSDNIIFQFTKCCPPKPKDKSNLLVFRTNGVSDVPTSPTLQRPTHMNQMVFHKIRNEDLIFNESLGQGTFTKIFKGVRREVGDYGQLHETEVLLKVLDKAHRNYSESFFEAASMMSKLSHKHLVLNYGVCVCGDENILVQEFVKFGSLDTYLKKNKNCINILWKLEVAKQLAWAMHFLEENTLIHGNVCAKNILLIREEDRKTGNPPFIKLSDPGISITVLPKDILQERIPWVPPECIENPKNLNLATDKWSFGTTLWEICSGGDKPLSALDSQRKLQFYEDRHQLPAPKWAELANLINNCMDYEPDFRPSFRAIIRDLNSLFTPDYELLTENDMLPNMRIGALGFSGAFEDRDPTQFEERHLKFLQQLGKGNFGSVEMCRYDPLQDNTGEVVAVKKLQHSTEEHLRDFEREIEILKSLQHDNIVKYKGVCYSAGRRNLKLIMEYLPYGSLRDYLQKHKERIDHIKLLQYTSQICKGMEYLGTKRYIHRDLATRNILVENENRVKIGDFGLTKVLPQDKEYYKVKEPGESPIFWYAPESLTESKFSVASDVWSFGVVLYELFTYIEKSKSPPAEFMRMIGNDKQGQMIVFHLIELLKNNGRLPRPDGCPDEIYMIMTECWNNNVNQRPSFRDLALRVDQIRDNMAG
Chain of BRD2-BD1 (P25440 74-180): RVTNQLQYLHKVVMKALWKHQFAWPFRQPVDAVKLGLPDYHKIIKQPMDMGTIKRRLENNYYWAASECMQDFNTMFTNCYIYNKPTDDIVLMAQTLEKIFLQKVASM

`Cc1ccc(Nc2nc(Nc3ccc(N4CCN(C)CC4)cc3)nc3ccccc23)cc1NS(=O)(=O)C(C)(C)C`: the concentration for half-maximal inhibition (IC50) (usually the point on the concentration scale where inhibition reaches its midpoint) on BRD2-BD1 came out at 636 nM; on BRD3-BD1, 3200 nM; at BRD4-BD1 it was 470 nM; on BRDT-BD1, 1800 nM; at BRD4-BD2, 1130 nM.
Take `Cc1cnc(Nc2ccc(N3CCN(C)CC3)cc2)nc1Nc1cccc(NS(=O)(=O)C(C)(C)C)c1` [drawing 271]: the IC50 amounted to 448 nM on BRD2-BD1; 366 nM at BRD3-BD1; 220 nM on BRD4-BD1; 230 nM at BRDT-BD1; 73 nM on BRD4-BD2; 7 nM on JAK2.
Consider `CN1CCN(c2ccc(Nc3nc4c(c(Nc5cccc(NS(=O)(=O)C(C)(C)C)c5)n3)COC4)cc2)CC1` [drawing 206], for which the IC50 turned out to be 1770 nM on BRD2-BD1, 2470 nM on BRD3-BD1 and 1000 nM on BRD4-BD2.
In the case of `CN1CCC(Nc2nc(Nc3ccc4c(c3)N(S(=O)(=O)C(C)(C)C)CC4)c3ccsc3n2)CC1` [drawing 204], the concentration for half-maximal inhibition (IC50) at BRD2-BD1 came to 776 nM; at BRD3-BD1 it was 331 nM; on BRD4-BD1, 160 nM; at BRD4-BD2, 293 nM.
In the case of `Cc1cnc(Nc2ccc(N3CCN(C)CC3)cc2)nc1Nc1cccc(NS(=O)(=O)C(C)(C)C)c1` [drawing 205], the IC50 was determined as 373 nM on BRD2-BD1; 213 nM at BRD3-BD1; 210 nM at BRD4-BD1; 13 nM on BRD4-BD2; 10 nM at JAK2.
Regarding `Cc1cnc(Nc2ccc(N3CCN(C)CC3)cc2)nc1Nc1cccc(NS(=O)(=O)C(C)(C)C)c1` [drawing 245], the IC50 at BRD2-BD1 was found to be 448 nM; on BRD3-BD1, 366 nM; on BRD4-BD1, 118 nM; on BRDT-BD1, 230 nM; at BRD4-BD2, 73 nM; at JAK2, 4 nM.
`COc1cc(Nc2nc(Nc3ccc(N4CCN(C)CC4)cc3)nc3ccccc23)ccc1Cl`: the IC50 on BRD2-BD1 came out at 790 nM; at BRD3-BD1, 8400 nM; on BRD4-BD1, 6300 nM; at BRD4-BD2 it was 5300 nM.
As for `CC(C)(C)S(=O)(=O)Nc1cccc(Nc2nc(NC3CCNCC3)nc3sccc23)c1` [drawing 203], the half-inhibitory concentration (IC50) at BRD2-BD1 was found to be 458 nM; on BRD3-BD1, 248 nM; on BRD4-BD1, 94 nM; on BRD4-BD2, 309 nM.
In the case of `CN(C)C1CCN(c2ccc(Nc3ncc4ccn(-c5cccc(NS(=O)(=O)C(C)(C)C)c5)c4n3)cc2F)CC1` [drawing 385], the results for the IC50 on BRD4-BD1 and on JAK2 were 131 nM and 3 nM, respectively.
In the case of `CN(C)C1CCN2c3ccc(Nc4ncc5ccn(-c6cccc(NS(=O)(=O)C(C)(C)C)c6)c5n4)cc3CC2C1` (stereo not drawn) [drawing 444], the IC50 came out at 268 nM at BRD4-BD1 and 8 nM at JAK2.
In the case of `CN1CCN(c2ccc(Nc3ncc4ccn(-c5cccc(NS(=O)(=O)C6(C)CC6)c5)c4n3)cc2)CC1`, the IC50 came to 930 nM on BRD4-BD1 and 12 nM at JAK2.
In the same order, the values of `CNC(=O)C1CCN(c2ccc(Nc3ncc4ccn(-c5ccc(F)c(NS(=O)(=O)C(C)(C)C)c5)c4n3)cc2F)CC1` are 735 nM and 123 nM.
Take `O=S(=O)(Nc1cc(-n2ccc3cnc(Nc4ccc(N5CCNCC5)cc4)nc32)ccc1F)C1CC1`: the half-maximal inhibitory concentration (IC50) is 1040 nM at BRD4-BD1 and 14.3 nM on JAK2.
With `O=C(NC1CCNCC1)c1ccc(Nc2ncc3ccn(-c4cccc(NS(=O)(=O)C5CC5)c4)c3n2)cc1F`, the half-inhibitory concentration (IC50) at BRD4-BD1 came to 1590 nM; on JAK2, 69 nM.
With `COc1cc(Nc2ncc3ccn(-c4ccc(F)c(NS(=O)(=O)C(C)(C)C)c4)c3n2)ccc1N1CCN(C)CC1`, the values for the IC50 at BRD4-BD1 and at JAK2 were 272 nM and 90 nM, respectively.
Regarding `CC(C)S(=O)(=O)Nc1cccc(-n2ccc3cnc(Nc4ccc(N5CCN(C)CC5)cc4)nc32)c1`, the figures for the IC50 at BRD4-BD1 and at JAK2 were 1020 nM and 8.2 nM, respectively.
In the same order, the values of `Cc1ccc(-n2ccc3cnc(Nc4ccc(N5CCNCC5)cc4)nc32)cc1NS(=O)(=O)C1CC1` are 2200 nM and 31 nM.
As for `CNC1CCN(c2ccc(Nc3ncc4scc(-c5cccc(NS(=O)(=O)C(C)(C)C)c5)c4n3)cc2F)CC1`, the concentration for half-maximal inhibition (IC50) on BRD4-BD1 is 431 nM; on JAK2 it was 2 nM.

These data come from patent US11279703B2, “Fused pyrimidine compounds as BRD4 and JAK2 dual inhibitors and methods for use thereof” (APTOSE BIOSCIENCES INC., priority 2016, dated 2022).
